According to patent US8455461B2, “Compositions containing a synergic mixture of polyols and xyloglucanes as phytosanitary and bio-fertilising products” (Elicityl, priority 2007, dated 2013):

Experiments:
[1] = tested on: Chardonnay vine plants; test: Frost-resistance of young vine plants, Chardonnay (foliar spraying, cold stress, foliar necroses); assay type: in vivo
Method: (§1) Plants originating from different vine varieties: the Chardonnay and Cabernet-Sauvignon varieties are used. Each sample, composed of 5 to 21 plants, is treated by foliar spraying at different vegetative stages on the BBCH scale with a mixture containing the xyloglucan elicitor, heptasaccharide XFGol or heptamaloxyloglucan, in solution at variable doses combined or not combined with sorbitol; the spraying of 2.5 ml of solution per plant is carried out using a sprayer (deviation of +/−1%). After use of the elicitor, the plants were exposed to cold stress of variable intensity and duration. After exposure to the cold, the plants are placed in a climatic chamber at 20° C. with a 12-hour day/night alternation. The appearance of the leaves is observed 24 hours and 72 hours after removal from the cold. The effects of the cold are evaluated by observing the foliar necroses induced by frost and the plants are kept for several months in order to monitor their subsequent development. The results are expressed by the protection index c (%)=100−P; P, being the proportion of foliar necroses. The results are also expressed in gain: [formula]

[2] = tested on: Cabernet-Sauvignon vine plants; test: Frost-resistance of young vine plants, Cabernet-Sauvignon (foliar spraying, cold stress, foliar necroses); assay type: in vivo
Method: as §1

Structure (SMILES) | If % average (protection index) ([1]; all physiological stages combined, 5 nM elicitor) | Gain % ([1]; all physiological stages combined, 5 nM elicitor, vs dry control) | Gain % ([2]; Cabernet-Sauvignon second series, 500 nM elicitor, vs dry control) | If % average (protection index) ([2]; Cabernet-Sauvignon second series, all physiological stages combined, 500 nM elicitor) | effect of sorbitol on frost protection ([1]; 0.1% sorbitol, when the elicitor itself has no effect) | effect of sorbitol on frost protection ([2]; Cabernet-Sauvignon, 0.1% sorbitol, when the elicitor itself has no effect)
CC1OC(OC2C(OC3C(OCC4OC(OC(C(O)CO)C(O)C(O)CO)C(O)C(O)C4OC4OC(COC5OCC(O)C(O)C5O)C(O)C(O)C4O)OCC(O)C3O)OC(CO)C(O)C2O)C(O)C(O)C1O (stereo not drawn) [Elicitor, heptamaloxyloglucan] | 40% | 0% | 200% | 60% | – | –
OC[C@@H](O)[C@@H](O)[C@H](O)[C@@H](O)CO [sorbitol] | – | – | – | – | without effect | without effect
